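Method: 48-hour compound exposure of cells in 96-well plates, five concentrations, linear interpolation of endpoints. GI50 is the concentration that inhibits growth by half. At the TGI there is no net growth.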
What was measured:
Experiment in all cases: DTP human tumour cell line panel, 48 h
HL-60(TB) leukemia = tested on: HL-60(TB) leukemia
OVCAR-8 ovarian = tested on: OVCAR-8 ovarian
PC-3 prostate = tested on: PC-3 prostate
MALME-3M melanoma = tested on: MALME-3M melanoma
RXF 393 renal = tested on: RXF 393 renal
HS 578T breast = tested on: HS 578T breast
MDA-MB-231 breast = tested on: MDA-MB-231 breast
A498 renal = tested on: A498 renal
SN12C renal = tested on: SN12C renal
MOLT-4 leukemia = tested on: MOLT-4 leukemia

SMILES | TGI (HL-60(TB) leukemia) | TGI (OVCAR-8 ovarian) | TGI (PC-3 prostate) | TGI (MALME-3M melanoma) | TGI (RXF 393 renal) | TGI (HS 578T breast) | TGI (MDA-MB-231 breast) | TGI (A498 renal) | TGI (SN12C renal) | TGI (MOLT-4 leukemia) | GI50 (HL-60(TB) leukemia) | GI50 (PC-3 prostate) | GI50 (HS 578T breast) | GI50 (MDA-MB-231 breast) | GI50 (A498 renal) | GI50 (SN12C renal) | GI50 (MOLT-4 leukemia) | GI50 (OVCAR-8 ovarian) | GI50 (MALME-3M melanoma) | GI50 (RXF 393 renal)
Cc1ccc(NCCN(C)C)c2c(=O)c3cc(O)ccc3sc12 | 6.07 µM | 6.84 µM | 11.1 µM | 11.2 µM | 4.8 µM | 3.87 µM | 4.6 µM | 21.9 µM | 14 µM | 3.2 µM |  |  |  |  |  |  |  |  |  | 
COc1cc(/C=C2/Oc3c(OC)cccc3C2=O)ccc1O | > 100 µM | > 100 µM | > 100 µM |  | > 100 µM | > 100 µM | > 100 µM | > 100 µM | > 100 µM | > 100 µM |  |  |  |  |  |  |  |  |  | 
C/C(=N\NC(=S)N1CCOCC1)c1nc2ncccc2[nH]1 | > 100 µM | 80.2 µM | > 100 µM | > 100 µM |  | > 100 µM | > 100 µM | > 100 µM | > 100 µM | > 100 µM |  |  |  |  |  |  |  |  |  | 
CCOC(=O)c1csc(NC(=O)C(C)N2CCOCC2)n1 (stereo not drawn) | > 100 µM | > 100 µM | > 100 µM | > 100 µM | > 100 µM |  | > 100 µM | > 100 µM |  | > 100 µM |  |  |  |  |  |  |  |  |  | 
CCN(CC)CCNc1ccc([N+](=O)[O-])c2sc3cc(Cl)ccc3c(=O)c12 | > 100 µM |  | > 100 µM |  |  | 37.1 µM | 5.01 µM | 25.6 µM | 6.58 µM | > 100 µM | 11.5 µM | 2.65 µM | 4.41 µM | 1.74 µM | 5.31 µM | 2.05 µM | 2.34 µM |  |  | 
c1cncc([O][Ge]([O]c2cccnc2)([O]c2cccnc2)[O]c2cccnc2)c1 |  | > 100 µM |  | > 100 µM | > 100 µM |  |  |  | > 100 µM |  |  |  |  |  |  | > 100 µM |  | > 100 µM | > 100 µM | > 100 µM
CC1(Cl)CC(C)(/C=C/Cl)C(Cl)CC1Cl (stereo not drawn) |  | 31.3 µM |  | 29.6 µM | 30.6 µM |  |  | 34 µM | 31 µM | > 100 µM |  |  |  |  |  |  |  |  |  | 
Cc1ccc(NC(=O)C(=O)Cc2cccc[n+]2[O-])cc1C | > 100 µM | > 100 µM |  | > 100 µM | > 100 µM |  |  | > 100 µM | > 100 µM | > 100 µM |  |  |  |  |  |  |  |  |  | 
NC(Cc1ccccc1CP(=O)(O)O)C(=O)O (stereo not drawn) | > 100 µM | > 100 µM | > 100 µM |  | > 100 µM | > 100 µM | > 100 µM |  | > 100 µM | > 100 µM |  |  |  |  |  |  |  |  |  | 
COC(=O)C(NC(=O)c1ccccc1)C(c1c(O)cc(O)cc1O)P(=O)(OC)OC (stereo not drawn) | > 100 µM | > 100 µM |  |  |  |  |  | > 100 µM | > 100 µM | > 100 µM |  |  |  |  |  |  |  |  |  | 
Cc1cc(Nc2ccc(Cl)cc2)nc(NCCCNc2ccnc3cc(Cl)ccc23)n1 |  |  | 3.18 µM |  | 3.08 µM | 3.98 µM |  |  |  |  |  | 1.65 µM | 1.84 µM |  |  |  |  |  |  | 1.52 µM
CC(C)=CCC/C(C)=C/C=C/C(C)=C/C1C[C@@]2(C(O)O1)[C@H](CCCO)/C(=C(/C)C=O)CC[C@]2(C)O (stereo partly drawn) | 29 µM | 51 µM |  | 22.6 µM | 35.2 µM |  |  |  | 30.8 µM | 30.8 µM |  |  |  |  |  |  |  |  |  | 
C(=C\c1c2oc(-c3ccccc3)cc(-c3ccccc3)c-2c2ccccc12)/C=C1\c2ccccc2-c2c(-c3ccccc3)cc(-c3ccccc3)[o+]c21 | > 100 µM | > 100 µM |  | > 100 µM | > 100 µM |  |  | > 100 µM | > 100 µM | > 100 µM |  |  |  |  |  |  |  |  |  | 

From PubChem BioAssay (NCI)
